This is an account of results in patent US10370622B2, “Soap bar having enhanced antibacterial activity” (Conopco, Inc., priority 2013, dated 2019).

Experiment in one series: not given
The settings on record: in water at 25° C.; cited from earlier work.
`O=C([O-])c1ccccc1.[Ag+]` [Silver benzoate]: the Ksp is 2.5e-05 mol/L. In the case of `[Br][Ag]` [Silver bromide], the Ksp is 5.3e-13 mol/L.

In the case of `[Cl][Ag]` [Silver chloride], the Ksp was 1.8e-10 mol/L. In the case of `O=C([O-])CC(O)(CC(=O)[O-])C(=O)[O-].[Ag+].[Ag+].[Ag+]` [Silver citrate], the Ksp is 2.5e-18 mol/L. Consider `O=S(=O)([O-])[O-].[Ag+].[Ag+]` [Silver sulfate], for which the Ksp is 1.4e-05 mol/L.

The next series in a line: Silver ion solubility derived from solubility product (Ksp) in water at 25° C. The settings on record: calculated as (Ksp·x)^(1/(x+1)).
With `[Cl][Ag]` [Silver chloride], the “Silver Ion Solubility [Ag+]” value is 13 µM.
